In patent US9102697B2, “Trioxacarcins and uses thereof” (President and Fellows of Harvard College, priority 2010, dated 2015):

System: self-complementary duplex 12-mer d(AATTACGTAATT) (SEQ ID NO: 1)
Assay: DNA alkylation detected by non-denaturing DNA-gel electrophoresis with in-gel fluorescence
Format: biochemical
Details: for alkylation / modification of the DNA duplex: 12-mer duplex with single central G residue, gel in-gel fluorescence and LC-MS; for fluorescent complex with the oligonucleotide detected: two-hour reaction at 23 °C
Source text: Two independent techniques were used to evaluate the reactivity of the synthesized trioxacarcins towards d(AATTACGTAATT) (SEQ ID NO: 1). The first technique involved detecting alkylated DNA oligonucleotides by in-gel fluorescence with non-denaturing DNA-gel electrophoresis. The second technique involved detecting alkylated DNA oligonucleotides using a liquid chromatography-mass spectrometry method.
We began the DNA-alkylation studies by evaluating the activity of DC-45-A2 towards the self-complementary 12-mer d(AATTACGTAATT) (SEQ ID NO: 1) in pH 7 phosphate buffer at different concentrations (FIG. 10). The concentration of the oligonucleotide was held constant at 100 μM while DC-45-A2 was used at five different concentrations ranging from 1 μM to 1000 μM (lanes 4-8) in five separate reactions. At the highest concentrations of DC-45-A2 (500 μM and 1000 μM), a second and distinct fluorescent complex was observed by in-gel fluorescence. […] Chem. 390, 1139 (2008). After incubation for 3 h at 23° C., aliquots of the reactions mixtures were loaded onto a 20% crosslinked polyacrylamide gel. After electrolution, the gels were visualized using an alpha imager, first by irradiating the gel at 302 nm to image fluorescent species in the gel (in-gel fluorescence) and then by treating the gel with ethidium bromide and again irradiating at 302 nm to image fluorescent species in the treated gel. The fluorescence quantum efficiency of an ethidium bromide molecule increases 20- to 25-fold upon intercalation into duplex DNA: J.-B. Le Pecq, C. Paoletti, Anal. Biochem. 17, 100 (1966).
Next, we compared the reactivity of DC-45-A2 to both iso-DC-45-A2 and dideoxy-DC-45-A2 towards the same oligonucleotide in three separate alkylation experiments (FIG. 11).
Having noted the apparent differential reactivity between DC-45-A2 and dideoxy-DC-45-A2, we performed an experiment to visualize the formation of the fluorescent complex at different reaction times (FIG. 12). The reaction of the oligonucleotide with DC-45-A2 reached an approximate maximum of fluorescence intensity between 5 and 10 h, while the reaction of the oligonucleotide with dideoxy-DC-45-A2 reached a maximum fluorescence intensity between 1 and 4 h.
Seven vials (designated vials 1 and vials 3-8) were loaded with alkylation buffer (86.7 μL, see above for preparation). A solution of duplex oligonucleotide d(AATTACGTAATT) (SEQ ID NO: 1) (1.07 mM [concentration of the DNA duplex] in alkylation buffer [see above for preparation], 9.34 μL, 10 nmol, 1 equiv) was added to vials 3-8. Dimethylsulfoxide was added in the following amounts to vials 3-7 (vial 3, 4.00 μL; vial 4, 3.80 μL; vial 5, 3.00 μL; vials 6-7, 2.00 μL). Solutions of DC-45-A2 in dimethylsulfoxide was added to vial 1 and vials 4-8 at the following concentrations and amounts (vial 1, 25 mM solution of DC-45-A2, 4.00 μL; vial 4, 5 mM solution of DC-45-A2, 0.20 μL; vial 5, 5 mM solution of DC-45-A2, 1.00 μL; vial 6, 5 mM solution of D-45-A2, 2.00 μL; vial 7, 25 mM solution of DC-45-A2, 2.00 μL; vial 8, 25 mM solution of DC-45-A2, 4.00 μL). The samples were vortexed, then rotated end-over-end at 23° C. After 2 h, four vials (designated vials 9-12) were prepared containing the following (vial 9, an aliquot of the solution from vial 3 [18.0 μL], DNase I enzyme solution [2.00 μL, Invitrogen 18047-019]; vial 10, an aliquot of the solution from vial 3 [20.0 μL]; vial 11, an aliquot of the solution from vial 5 [18.0 μL], DNase I enzyme [2.00 μL, Invitrogen 18047-019]; vial 12, an aliquot of the solution from vial 5 [20.0 μL]. Vials 9 and 11 were rotated end-over-end at 23° C. for 1 h. Vials 10 and 12 were heated at 95° C. for 15 min. To a final vial (designated vial 2) was added a 10-bp DNA ladder (4 μL, Invitrogen 10821-015) and alkylation buffer (16.0 μL). Vials 2 and 9-12 were diluted with loading buffer (5.00 μL, see above for preparation). A 20-μL aliquot was removed from vials 1 and 3-8. […]

Row | Compound | alkylation / modification of the DNA duplex (23 °C) | alkylation / modification of the DNA duplex (23 °C, listed as Iso-DC-45-A2) | alkylation / modification of the DNA duplex (23 °C, listed as 1) | rate of alkylation of the DNA duplex (23 °C) | fluorescent complex with the oligonucleotide detected (compound and DNA 100 μM) | stability of the fluorescent DNA complex to heating (reaction mixture heated at 95 °C for 15 min) | efficiency of alkylation of the DNA duplex (23 °C, compared with DC-45-A2) | signal intensity of the fluorescent complex (compound and DNA 100 μM, 2 h at 23 °C, compared with DC-45-A2)
1 | COc1c2c(c(O)c3c4c(c(C)cc13)[C@H]1O[C@]3(C(OC)OC)O[C@H]1[C@](O)(O4)[C@@]31CO1)C(=O)[C@@H](O)C[C@@H]2O [iso-DC-45-A2, 11,12,13,15-tetraepi-DC-45-A2] | unreactive | not observed to modify | – | – | – | – | – | –
2 | DC-45-A2 | found to modify | – | readily alkylated | half life of hours | clearly detected | destroyed | – | –
3 | Dideoxy-DC-45-A2 | found to modify | – | – | within minutes | clearly detected | – | apparently greater efficiency | more intense signal
